The text below walks through data of patent publication US11638723B2, “Method for generating T cells progenitors” (Assistance Publique—Hopitaux de Paris, priority 2017, dated 2023).

Test [1] concerns the target T1, Aryl hydrocarbon/Dioxin receptor (AhR) (Homo sapiens, UniProt P35869).
T1 sequence (P35869 11-848): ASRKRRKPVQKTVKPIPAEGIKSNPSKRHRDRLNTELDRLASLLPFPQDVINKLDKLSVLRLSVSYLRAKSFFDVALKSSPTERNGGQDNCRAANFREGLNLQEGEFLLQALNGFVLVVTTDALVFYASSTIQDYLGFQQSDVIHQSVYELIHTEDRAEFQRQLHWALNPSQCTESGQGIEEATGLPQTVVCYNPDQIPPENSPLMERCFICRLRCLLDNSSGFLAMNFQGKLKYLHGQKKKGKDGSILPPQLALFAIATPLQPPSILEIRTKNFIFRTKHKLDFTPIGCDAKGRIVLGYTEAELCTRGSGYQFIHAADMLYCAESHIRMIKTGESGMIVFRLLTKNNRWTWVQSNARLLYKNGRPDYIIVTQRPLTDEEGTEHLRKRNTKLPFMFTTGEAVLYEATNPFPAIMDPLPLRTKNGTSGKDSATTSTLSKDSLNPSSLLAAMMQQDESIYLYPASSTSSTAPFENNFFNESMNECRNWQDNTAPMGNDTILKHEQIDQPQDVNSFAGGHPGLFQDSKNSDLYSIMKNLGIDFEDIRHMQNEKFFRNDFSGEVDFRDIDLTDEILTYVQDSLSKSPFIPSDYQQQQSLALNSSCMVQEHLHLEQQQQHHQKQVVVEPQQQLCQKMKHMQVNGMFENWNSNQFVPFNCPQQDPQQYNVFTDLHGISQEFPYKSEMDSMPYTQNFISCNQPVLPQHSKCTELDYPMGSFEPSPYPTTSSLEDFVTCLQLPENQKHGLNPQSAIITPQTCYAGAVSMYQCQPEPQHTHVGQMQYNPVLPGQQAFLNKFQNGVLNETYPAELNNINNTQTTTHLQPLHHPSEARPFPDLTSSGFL
Conditions: cited from earlier work.

Test [2] concerns CD34+ cells from cord blood. Kind of test: DL-4 culture of CD34+ cells, T-cell precursor generation (flow cytometry). Type of test: cell-based, human. Conditions: FIG. 9. Background: Flow cytometry measures light scatter and fluorescence of single cells or particles in a stream.
Method: CD34+ cells from human CB or mobilized peripheral blood samples were cultured in 24-well plates or 6-well plates that had been coated with recombinant human fibronection (RetroNectin®, Clontech/Takara) and DL-4 (5 μg/ml, PX'Therapeutics, Grenoble, France). Coating was performed for 2 h at 37° C., DL-4 coated wells were then blocked with bovine serum albumin 2% (BSA) in phosphate-buffered saline (PBS) for 30 minutes at 37° C. and washed with PBS. […] Cultured cells were analyzed by fluorescence-activated cell sorting (FACS) after 3 and 7 days of culture on DL-4 respectively to exclude CD34-/CD7-myeloid cells from subsequent analyses.
Human cells were stained and analyzed using a Gallios analyzer (Beckman Coulter, Krefeld, Germany). […] The data were analyzed using FlowJo software (Treestar, Ashland, Oreg.) after gating on viable, 7AAD-negative cells.
The data were analyzed using FlowJo software (version 10.2, Treestar, Ashland, Oreg.) after gating on viable, 7AAD-negative cells.
In test [3] the test system is DL-4 T-cell precursors. In words: Analysis of T cell receptor rearrangement. Format: cell-based, human. The method, then:
TCR gene rearrangement analysis was performed in duplicate and on the two independently purified subsets (average is shown). TCR-δ quantification (D δ2-D δ3, D δ2-J δ1, and D δ3-J δ1) was performed with the listed sets of primers and probes. The analysis of TCR rearrangements by multiplex fluorescent PCR was performed by separation of fluorochrome-labeled single stand PCR products in a capillary sequencing polymer and detected via automated laser scanning.

pIC50: −log10 of the molar value.

The pIC50 is −log10 of the IC50, conventionally taken in molar units.

In the case of `Cc1ccccc1N=Nc1ccc(NC(=O)c2ccnn2C)c(C)c1` [CH 223191], the pIC50 in test [1] was 7.52.

Consider `CC(C)n1cnc2c(NCCc3ccc(O)cc3)nc(-c3csc4ccccc34)nc21` [SR1, 4-(2-(2-(Benzo[b]thiophen-3-yl)-9-isopropyl-9H-purin-6-ylamino)ethyl)phenol], for which the “T-cell differentiation, CD5+CD7+ cells at day 7” value in test [2] is reported as “accelerates T-cell differentiation”. Moreover, the TCRdelta rearrangements entry in test [3] (CB cells) is “Detection of D52-D53 rearrangements”. Also, the “signs of TCR rearrangement” value in test [3] (after 7 days of culture) is recorded as “do not exhibit any signs of TCR rearrangement”.
